Assay results: patent US12338243B2, “P2X7 modulators” (JANSSEN PHARMACEUTICA NV, priority 2014, dated 2025)

Columns and labels:
P2X7 [1] = target: T1, P2X7 (Homo sapiens, UniProt Q99572); assay: Ca2+ flux (FLIPR) in 1321N1 cells expressing recombinant human P2X7 channel; assay type: cell-based; set-up: expressed in transfected cells; host or cells: 1321N1 cells; details: 250 μM BzATP
T1 sequence (Q99572 1-595): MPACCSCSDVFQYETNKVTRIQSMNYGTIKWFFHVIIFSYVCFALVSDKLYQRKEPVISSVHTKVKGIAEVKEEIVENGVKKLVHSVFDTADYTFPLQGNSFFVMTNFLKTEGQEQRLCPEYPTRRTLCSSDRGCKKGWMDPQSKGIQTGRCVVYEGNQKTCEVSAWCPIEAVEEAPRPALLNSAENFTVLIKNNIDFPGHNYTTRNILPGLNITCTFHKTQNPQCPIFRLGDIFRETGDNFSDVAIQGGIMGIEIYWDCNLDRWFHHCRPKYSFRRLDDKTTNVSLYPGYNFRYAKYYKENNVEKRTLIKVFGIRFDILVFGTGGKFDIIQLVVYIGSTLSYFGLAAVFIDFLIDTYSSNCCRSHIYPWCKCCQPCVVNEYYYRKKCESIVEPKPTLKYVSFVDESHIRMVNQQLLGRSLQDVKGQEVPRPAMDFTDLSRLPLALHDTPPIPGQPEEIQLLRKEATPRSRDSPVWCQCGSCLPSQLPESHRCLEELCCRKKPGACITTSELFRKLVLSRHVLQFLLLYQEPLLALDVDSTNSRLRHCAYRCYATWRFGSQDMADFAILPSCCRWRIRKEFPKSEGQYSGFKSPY
In short: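 1321N1 cells expressing recombinant human P2X7, loaded 60 min with Calcium-4 dye in HEPES buffer pH 7.40 (1 mM CaCl2, 1 mM MgCl2), preincubated 30 min with compounds. Fluorescence change recorded 180 seconds after agonist addition.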

rat P2X7 [2] = target: T2, rat P2X7 (Rattus norvegicus, UniProt Q64663); assay: Ca2+ flux (FLIPR) in 1321N1 cells expressing recombinant rat P2X7 channel; details: FLIPR (rat) IC50 (μM), 250 μM BzATP
T2 sequence (Q64663 1-595): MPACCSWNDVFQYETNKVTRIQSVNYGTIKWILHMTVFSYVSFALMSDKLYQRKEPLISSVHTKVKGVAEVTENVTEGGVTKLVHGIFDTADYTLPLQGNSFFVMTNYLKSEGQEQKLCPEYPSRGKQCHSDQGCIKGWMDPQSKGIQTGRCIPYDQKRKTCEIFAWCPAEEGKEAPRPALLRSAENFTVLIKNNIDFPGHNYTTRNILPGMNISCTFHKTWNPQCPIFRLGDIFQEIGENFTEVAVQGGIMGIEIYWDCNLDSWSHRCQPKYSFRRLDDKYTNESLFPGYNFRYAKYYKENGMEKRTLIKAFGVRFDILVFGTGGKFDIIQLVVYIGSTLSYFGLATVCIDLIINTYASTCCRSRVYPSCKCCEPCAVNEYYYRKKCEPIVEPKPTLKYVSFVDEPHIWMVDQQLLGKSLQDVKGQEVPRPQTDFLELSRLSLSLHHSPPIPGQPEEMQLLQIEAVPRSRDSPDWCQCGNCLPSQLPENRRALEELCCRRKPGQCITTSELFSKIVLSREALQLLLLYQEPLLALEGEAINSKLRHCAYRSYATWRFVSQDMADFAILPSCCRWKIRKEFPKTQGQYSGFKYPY
Experimental: (§1) P2X7 Antagonism in Recombinant Human P2X7 Cells or Recombinant Rat P2X7 Cells: (a) Ca^2+ Flux and (b) Radioligand Binding
(a) Ca^2+ flux: 1321N1 cells expressing the recombinant human or rat P2X7 channel was cultured in HyQ DME/(HyClone/Dulbecco's Modified Eagle Medium) high glucose supplemented with 10% Fetal Bovine Serum (FBS) and appropriate selection marker. Cells were seeded at a density of 25000 cells/well (96-well clear bottom black walled plates) in 100 μl volume/well. On the day of the experiment, cell plates were washed with assay buffer, containing (in mM): 130 NaCl, 2 KCl, 1 CaCl2), 1 MgCl2, 10 HEPES, 5 glucose; pH 7.40 and 300 mOs. After the wash, cells were loaded with the Calcium-4 dye (Molecular Device) and incubated in the dark for 60 minutes. Test compounds were prepared at 250× the test concentration in neat DMSO. Intermediate 96-well compound plates were prepared by transferring 1.2 μL of the compound into 300 μL of assay buffer. A further 3× dilution occurred when transferring 50 μL/well of the compound plate to 100 μL/well in the cell plate. Cells were incubated with test compounds and dye for 30 minutes. […] The fluorescence change was measured 180 seconds after adding the agonist.

rat P2X7 [3] = target: T2, rat P2X7; assay: Radioligand binding, rat P2X7-1321N1 cell membranes, tritiated A-804598
Text: as §1

P2X7 [4] = target: T1, P2X7; assay: Radioligand binding, human P2X7-1321N1 cell membranes, tritiated A-804598
Text: as §1

Row | Compound | IC50 (P2X7 [1]) | IC50 (rat P2X7 [2]) | Ki (rat P2X7 [3]) | Ki (P2X7 [4])
1 | C[C@H]1Cn2c(nnc2-c2ccccc2F)CN1C(=O)c1cccc(Cl)c1Cl [Example 38, (S)-(2,3-dichlorophenyl)(3-(2-fluorophenyl)-6-methyl-5,6-dihydro-[1,2,4]triazolo[4,3-a]pyrazin-7(8H)-yl)methanone] | 9930 nM | 7.67 µM | 56.2 nM | –
2 | C[C@H]1c2nnc(-c3ccccn3)n2CCN1C(=O)c1cccc(Cl)c1Cl (single isomer, unassigned) [Example 3] | – | > 10 µM | 1780 nM | –
3 | C[C@H]1Cn2c(nnc2-c2cccc(F)c2)CN1C(=O)c1ccc(F)c(Cl)c1Cl [Example 43, (S)-(2,3-dichloro-4-fluorophenyl)(3-(3-fluorophenyl)-6-methyl-5,6-dihydro-[1,2,4]triazolo[4,3-a]pyrazin-7(8H)-yl)methanone] | 9710 nM | > 10 µM | 133 nM | –
4 | C[C@H]1Cn2c(nnc2-c2cccc(F)c2)CN1C(=O)c1cccc(C(F)(F)F)c1Cl [Example 42, (S)-(2-chloro-3-(trifluoromethyl)phenyl)(3-(3-fluorophenyl)-6-methyl-5,6-dihydro-[1,2,4]triazolo[4,3-a]pyrazin-7(8H)-yl)methanone] | 2130 nM | 9.23 µM | 18.6 nM | –
5 | Cc1nnc2n1CCN(C(=O)c1cccc(C(F)(F)F)c1Cl)C2c1ccccn1 (racemic) [Example 85, (±)-(2-chloro-3-(trifluoromethyl)phenyl)(3-methyl-8-(pyridin-2-yl)-5,6-dihydro-[1,2,4]triazolo[4,3-a]pyrazin-7(8H)-yl)methanone] | 30.1 nM | 1.02 µM | – | 39.8 nM
6 | Cc1nnc2n1CCN(C(=O)c1cccc(C(F)(F)F)c1Cl)[C@@H]2c1ccccc1 [Example 67, (R)-(2-chloro-3-(trifluoromethyl)phenyl)(3-methyl-8-phenyl-5,6-dihydro-[1,2,4]triazolo[4,3-a]pyrazin-7(8H)-yl)methanone] | 483 nM | 2.05 µM | – | 316 nM
7 | Cc1nnc2n1CCN(C(=O)c1cccc(C(F)(F)F)c1Cl)C2c1ccc(F)cc1 (racemic) [Example 101, (±)-(2-chloro-3-(trifluoromethyl)phenyl)(8-(4-fluorophenyl)-3-methyl-5,6-dihydro-[1,2,4]triazolo[4,3-a]pyrazin-7(8H)-yl)methanone] | 27.8 nM | 5.06 µM | – | 31.6 nM
8 | O=C(c1ccc(Cl)cc1Cl)N1CCn2c(nnc2C(F)(F)F)[C@H]1c1ccccc1 [Example 120, (R)-(2,4-dichlorophenyl)(8-phenyl-3-(trifluoromethyl)-5,6-dihydro-[1,2,4]triazolo[4,3-a]pyrazin-7(8H)-yl)methanone] | 476 nM | > 10 µM | – | 50.1 nM
9 | Cc1nnc2n1CCN(C(=O)c1cccc(Cl)c1Cl)[C@@H]2c1ccccn1 [Example 112, (R)-(2,3-dichlorophenyl)(3-methyl-8-(pyridin-2-yl)-5,6-dihydro-[1,2,4]triazolo[4,3-a]pyrazin-7(8H)-yl)methanone] | 134 nM | 2.82 µM | – | 44.7 nM
10 | O=C(c1cccc(C(F)(F)F)c1F)N1CCn2c(nnc2C(F)(F)F)[C@H]1c1ccccc1 [Example 128, (R)-(2-fluoro-3-(trifluoromethyl)phenyl)(8-phenyl-3-(trifluoromethyl)-5,6-dihydro-[1,2,4]triazolo[4,3-a]pyrazin-7(8H)-yl)methanone] | 68.5 nM | 0.291 µM | – | 50.1 nM
11 | Cc1c(C(=O)N2CCn3c(C)nnc3[C@@H]2c2ccc(F)cc2)cccc1C(F)(F)F [Example 117, (S)-(8-(4-fluorophenyl)-3-methyl-5,6-dihydro-[1,2,4]triazolo[4,3-a]pyrazin-7(8H)-yl)(2-methyl-3-(trifluoromethyl)phenyl)methanone] | 64 nM | 7.03 µM | – | 20 nM
12 | CC(O)c1nnc2n1CCN(C(=O)c1cccc(C(F)(F)F)c1Cl)C2c1ccccc1 (racemic) [Example 80, (±)-(2-chloro-3-(trifluoromethyl)phenyl)(3-(1-hydroxyethyl)-8-phenyl-5,6-dihydro-[1,2,4]triazolo[4,3-a]pyrazin-7(8H)-yl)methanone] | 56.3 nM | 0.395 µM | – | 20 nM
13 | CC1c2nnc(-c3ccc(Cl)cc3)n2CCN1C(=O)c1cccc(C(F)(F)F)c1Cl (stereo not shown) [Example 37, (2-chloro-3-(trifluoromethyl)phenyl)(3-(4-chlorophenyl)-8-methyl-5,6-dihydro-[1,2,4]triazolo[4,3-a]pyrazin-7(8H)-yl)methanone] | 172 nM | 4.59 µM | – | 251 nM
14 | Cc1nnc2n1CCN(C(=O)c1cccc(Cl)c1Cl)[C@H]2c1ccc(F)cc1 [Example 105, (S)-(2,3-dichlorophenyl)(8-(4-fluorophenyl)-3-methyl-5,6-dihydro-[1,2,4]triazolo[4,3-a]pyrazin-7(8H)-yl)methanone] | 98.6 nM | 9.95 µM | – | 21.9 nM
15 | Cc1nnc2n1CCN(C(=O)c1cccc(C(F)(F)F)c1Cl)[C@H]2c1ccc(F)cc1 [Example 115, (S)-(2-chloro-3-(trifluoromethyl)phenyl)(8-(4-fluorophenyl)-3-methyl-5,6-dihydro-[1,2,4]triazolo[4,3-a]pyrazin-7(8H)-yl)methanone] | 8 nM | 0.623 µM | – | 10 nM
16 | O=C(c1cccc(C(F)(F)F)c1Cl)N1CCn2c(-c3ccco3)nnc2C1c1ccccc1 (racemic) [Example 79, (±)-(2-chloro-3-(trifluoromethyl)phenyl)(3-(furan-2-yl)-8-phenyl-5,6-dihydro-[1,2,4]triazolo[4,3-a]pyrazin-7(8H)-yl)methanone] | 15.1 nM | 0.0071 µM | – | 100 nM
17 | O=C(c1cccc(Cl)c1Cl)N1CCn2c(nnc2C(F)(F)F)C1c1ccccc1 (racemic) [Example 90, (±)-(2,3-dichlorophenyl)(8-phenyl-3-(trifluoromethyl)-5,6-dihydro-[1,2,4]triazolo[4,3-a]pyrazin-7(8H)-yl)methanone] | 11.9 nM | 0.964 µM | – | 20 nM
18 | O=C(c1cccc(C(F)(F)F)c1Cl)N1CCn2c(C3CC3)nnc2[C@@H]1c1ccc(F)cc1 [Example 107, (S)-(2-chloro-3-(trifluoromethyl)phenyl)(3-cyclopropyl-8-(4-fluorophenyl)-5,6-dihydro-[1,2,4]triazolo[4,3-a]pyrazin-7(8H)-yl)methanone] | 12.8 nM | 0.178 µM | – | 10 nM
19 | Cc1c(C(=O)N2CCn3c(nnc3C(F)(F)F)[C@H]2c2ccccc2)cccc1C(F)(F)F [Example 122, (R)-(2-methyl-3-(trifluoromethyl)phenyl)(8-phenyl-3-(trifluoromethyl)-5,6-dihydro-[1,2,4]triazolo[4,3-a]pyrazin-7(8H)-yl)methanone] | 9.8 nM | 0.262 µM | – | 10 nM
20 | O=C(c1cccc(C(F)(F)F)c1Cl)N1CCn2c(nnc2C(F)(F)F)C1c1cccnc1 (racemic) [Example 127, (±)-(2-chloro-3-(trifluoromethyl)phenyl)(8-(pyridin-3-yl)-3-(trifluoromethyl)-5,6-dihydro-[1,2,4]triazolo[4,3-a]pyrazin-7(8H)-yl)methanone] | 255 nM | 28.2 µM | – | 126 nM
21 | C[C@@H]1c2nnc(-c3ccccn3)n2CCN1C(=O)c1cccc(Cl)c1Cl (single isomer, unassigned) [Example 2] | – | 0.815 µM | 9.3 nM | –
22 | CC1c2nnc(-c3ccccn3)n2CCN1C(=O)c1ccnc(C(F)(F)F)c1Cl (stereo not shown) [Example 16, (3-chloro-2-(trifluoromethyl)pyridin-4-yl)(8-methyl-3-(pyridin-2-yl)-5,6-dihydro-[1,2,4]triazolo[4,3-a]pyrazin-7(8H)-yl)methanone] | 19.5 nM | 0.0177 µM | – | 100 nM
